In US20090081197A1 (Palatin Technologies, Inc., priority 2007, published 2009):
Non-standard residues stand in square brackets, D forms with d. Residues, ends and D or L forms follow the SMILES beside them. *: point of attachment. dPhe(4-Cl) = N[C@H](Cc1ccc(Cl)cc1)C(=O)O; Ahp = NCCCCCCC(=O)O; Bn = c1ccc(C*)cc1

What was measured:
[1] = Penile erection induction in male rats; type: in vivo; conditions: rat
In short: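 Male Sprague-Dawley rats (200-250 g), groups of 4-8, dosed IV or ICV at various doses and observed individually for penile erections. Only statistically relevant increases over vehicle-control mean PEs count as induction; IV responses below 1.0 PEs/rat treated as equivocal, some retested ICV.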

MC4-R [2] = target: T1, MC4-R (Homo sapiens, UniProt P32245); test: cAMP functional activity assay in HEK-293 cells, normal system; type: cell-based; set-up: expressed in transfected cells; host or cells: HEK-293; conditions: for intrinsic activity at MC4-R in a normal system: normal receptor density system, NDP-α-MSH = 1.0
T1 sequence (P32245 whole entry): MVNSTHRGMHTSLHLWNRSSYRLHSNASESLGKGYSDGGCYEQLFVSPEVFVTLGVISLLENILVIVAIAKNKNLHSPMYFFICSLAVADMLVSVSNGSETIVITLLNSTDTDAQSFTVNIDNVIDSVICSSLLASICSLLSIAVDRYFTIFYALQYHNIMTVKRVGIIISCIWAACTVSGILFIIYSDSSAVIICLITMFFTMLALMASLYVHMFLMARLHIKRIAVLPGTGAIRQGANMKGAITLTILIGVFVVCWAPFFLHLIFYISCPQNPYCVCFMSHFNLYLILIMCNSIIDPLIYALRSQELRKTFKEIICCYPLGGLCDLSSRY

MC4-R [3] = target: T1, MC4-R; test: cAMP agonist stimulation, low receptor density system (0.1 ng/mL doxycycline); conditions: 0.1 ng/mL doxycycline, low receptor density hMC4-R system; NDP-α-MSH maximal cAMP = 1.0
[4] = IV and IP food intake and body weight change, rats; type: in vivo; conditions: rat, IV
In short: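 Male Sprague-Dawley rats dosed IV (0.5-3, up to 10 mg/kg) or IP (0.5-10, up to 50 mg/kg); male C57BL/6 mice dosed IP. Change in food intake and body weight over 24 h post-dose versus 1-week vehicle baseline, with 48 and 72 h reversal checks.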

MC5-R = MC5-R (Homo sapiens, UniProt P33032); test: Competitive inhibition assay using [I^125]-NDP-α-MSH, hMC5-R membranes; type: binding; set-up: expressed in transfected cells; conditions: 1 μM test compound; read-out: Inhibition at 1 μM (NDP-α-MSH) In Normal System, MC5-R
Sequence of MC5-R (P33032 whole entry): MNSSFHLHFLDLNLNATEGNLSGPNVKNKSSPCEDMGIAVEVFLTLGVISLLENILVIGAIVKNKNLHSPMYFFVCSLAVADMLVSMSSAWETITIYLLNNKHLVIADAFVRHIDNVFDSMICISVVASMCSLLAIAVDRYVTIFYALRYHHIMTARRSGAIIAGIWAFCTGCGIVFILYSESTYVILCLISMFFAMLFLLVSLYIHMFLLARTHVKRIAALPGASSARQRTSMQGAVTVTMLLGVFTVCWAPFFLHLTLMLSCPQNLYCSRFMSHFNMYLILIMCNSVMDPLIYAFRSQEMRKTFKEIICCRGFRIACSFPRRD
In short: (§1)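 Tracer was 0.4 nM for MC3-R and MC5-R, 0.2 nM for MC4-R and 0.1 nM for MC1-R. Bound radioactivity was gamma-counted after filtration; values are triplicate means, with results below 0% reported as 0%.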

MC4-R [5] = target: T1, MC4-R; test: Competitive inhibition assay using [I^125]-NDP-α-MSH, hMC4-R membranes; type: binding; set-up: host or cells: TREx-293 (HEK-293 stably expressing Tet repressor); conditions: 1 μM test compound; read-out: Inhibition at 1 μM (NDP-α-MSH) In Normal System, MC4-R
In short: as §1

[6] = ICV food intake and body weight change; type: in vivo; conditions: rat, 1 nmol, 24 hours
In short: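 Rats fitted with intracerebroventricular cannulas and fed ad libitum got a single ICV dose of vehicle or compound (1-3 nmol). Food intake and body-weight change over the 24 h after dosing were compared with a 1-week vehicle baseline. Values at 48 h and 72 h were also recorded to follow return to baseline.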

MC3-R = MC3-R (Homo sapiens, UniProt P41968); test: Competitive inhibition assay using [I^125]-NDP-α-MSH, hMC3-R membranes; type: binding; set-up: expressed in transfected cells; conditions: 1 μM test compound; read-out: Inhibition at 1 μM (NDP-α-MSH) In Normal System, MC3-R
Sequence of MC3-R (P41968 whole entry): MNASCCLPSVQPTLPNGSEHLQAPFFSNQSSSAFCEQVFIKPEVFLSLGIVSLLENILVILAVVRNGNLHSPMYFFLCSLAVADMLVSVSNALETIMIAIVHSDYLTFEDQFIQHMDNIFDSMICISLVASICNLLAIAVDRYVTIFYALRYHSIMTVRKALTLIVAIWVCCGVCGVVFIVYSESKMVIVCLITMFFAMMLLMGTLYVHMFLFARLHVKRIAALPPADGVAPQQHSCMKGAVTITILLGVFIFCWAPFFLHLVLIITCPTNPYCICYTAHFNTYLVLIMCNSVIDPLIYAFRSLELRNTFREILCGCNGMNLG
In short: as §1

| SMILES | Penile Erection IV ([1]; IV) | penile erection response ([1]; IV) | intrinsic activity at MC4-R in a normal system (MC4-R [2]) | Efficacy/Intrinsic Activity (MC4-R [3]) | 24 hour decrease in food intake ([4]; dose not stated) [%] | decrease in body weight ([4]; dose not stated, 24 hours) [%] | inhibition at 1 µM (MC5-R) [%] | inhibition at 1 µM (MC4-R [5]) [%] | decrease in body weight [6] [%] | decrease in food intake [6] [%] | inhibition at 1 µM (MC3-R) [%] | Penile Erection ICV ([1]; ICV) | penile erection response ([1]; ICV, 0.3 to 3 nmole) | penile erection response ([1]; IV, 0.3 to 30 μg/kg) | functional status at MC4-R in cAMP assay (MC4-R [2]; normal system, 1 μM concentration where stated) | maximal decrease in food intake ([4]; 10 mg/kg, 24 hours) [%] |
| --- | --- | --- | --- | --- | --- | --- | --- | --- | --- | --- | --- | --- | --- | --- | --- | --- |
| N=C(N)NCCC[C@H](NC(=O)[C@@H](Cc1ccc(Cl)cc1)NC(=O)[C@H](COCc1ccccc1)NC(=O)CCCCCCN)C(=O)N[C@@H](Cc1c[nH]c2ccccc12)C(=O)N[C@@H](CC(=O)O)C(N)=O [Example 13, NH2—(CH2)6—C(═O)-Ser(Bzl)-D-Phe(4-Cl)-Arg-Trp-Asp-NH2] (H-[Ahp]S(Bn)[dPhe(4-Cl)]RWD-NH2) | No | no penile erections | 0.5 | None | 6 | 1 | 48 | 98 | 2.1 | 25.7 | 73 |  |  |  |  |  |
| N=C(N)NCCC[C@H]1CN(CCc2ccc3ccccc3c2)CCN1C(=O)[C@H](N)Cc1ccc(Cl)cc1Cl [Example 17, N-{3-[(S)-1-[(R)-2-Amino-3-(2,4-dichloro-phenyl)-propionyl]-4-(2-naphthalen-2-yl-ethyl)-piperazin-2-yl]-propyl}-guanidine] | No |  | 0.4 | None |  |  | 75 | 99 |  | 32 | 87 | No | no penile erection response | no penile erection response | partial agonist (intrinsic activity between 0.1 (10%) and 0.7 (70%) is classified as a partial agonist) | 91 |
